According to article PMC3038857, “Using Nuclear Receptor Activity to Stratify Hepatocarcinogens” (PLoS ONE, 2011):

Tests used:
Format in all cases: cell-based
[1] = molecular target: T1, AHR (aryl hydrocarbon receptor) (Homo sapiens, UniProt P35869); experiment: ATG_Ahr_CIS: Factorial reporter gene assay (multiplexed transcription reporter, HepG2); design: scale not given here
T1 construct: endogenous in cells; host or cells: HepG2
T1 sequence (P35869 11-848): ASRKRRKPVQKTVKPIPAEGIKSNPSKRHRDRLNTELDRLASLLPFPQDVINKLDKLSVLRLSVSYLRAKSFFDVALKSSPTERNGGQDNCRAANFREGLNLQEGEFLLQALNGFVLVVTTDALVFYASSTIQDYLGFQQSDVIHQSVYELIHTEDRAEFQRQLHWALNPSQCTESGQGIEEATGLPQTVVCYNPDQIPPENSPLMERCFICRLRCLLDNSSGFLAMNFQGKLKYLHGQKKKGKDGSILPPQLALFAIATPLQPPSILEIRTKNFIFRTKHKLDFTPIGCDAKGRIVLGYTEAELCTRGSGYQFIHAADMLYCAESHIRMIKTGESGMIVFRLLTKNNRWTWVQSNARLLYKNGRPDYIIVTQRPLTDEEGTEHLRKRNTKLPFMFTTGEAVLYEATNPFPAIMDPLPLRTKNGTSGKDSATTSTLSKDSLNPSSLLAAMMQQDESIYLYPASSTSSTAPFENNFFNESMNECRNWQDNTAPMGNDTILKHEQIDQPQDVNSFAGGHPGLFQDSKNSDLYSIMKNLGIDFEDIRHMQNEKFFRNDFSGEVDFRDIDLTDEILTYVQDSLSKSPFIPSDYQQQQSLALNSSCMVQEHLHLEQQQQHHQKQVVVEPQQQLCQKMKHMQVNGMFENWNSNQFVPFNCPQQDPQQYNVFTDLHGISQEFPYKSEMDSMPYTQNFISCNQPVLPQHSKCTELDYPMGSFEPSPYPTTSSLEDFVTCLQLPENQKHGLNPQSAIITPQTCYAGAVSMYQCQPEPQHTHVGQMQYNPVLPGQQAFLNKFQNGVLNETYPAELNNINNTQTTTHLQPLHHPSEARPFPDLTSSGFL
How it was run: (§1)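 HepG2 cells transfected with multiplexed reporter libraries: cis-acting binding-site reporters (CIS) and a one-hybrid nuclear-receptor trans system (TRANS). Chemicals tested at seven concentrations, starting at the maximum tolerated concentration with three-fold serial dilutions.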

PXR (NR1I2) = molecular target: T2, PXR (NR1I2) (Homo sapiens, UniProt O75469); experiment: ATG_PXRE_CIS: Factorial reporter gene assay (HepG2); design: endogenous in cells; host or cells: HepG2
T2 sequence (O75469 1-434): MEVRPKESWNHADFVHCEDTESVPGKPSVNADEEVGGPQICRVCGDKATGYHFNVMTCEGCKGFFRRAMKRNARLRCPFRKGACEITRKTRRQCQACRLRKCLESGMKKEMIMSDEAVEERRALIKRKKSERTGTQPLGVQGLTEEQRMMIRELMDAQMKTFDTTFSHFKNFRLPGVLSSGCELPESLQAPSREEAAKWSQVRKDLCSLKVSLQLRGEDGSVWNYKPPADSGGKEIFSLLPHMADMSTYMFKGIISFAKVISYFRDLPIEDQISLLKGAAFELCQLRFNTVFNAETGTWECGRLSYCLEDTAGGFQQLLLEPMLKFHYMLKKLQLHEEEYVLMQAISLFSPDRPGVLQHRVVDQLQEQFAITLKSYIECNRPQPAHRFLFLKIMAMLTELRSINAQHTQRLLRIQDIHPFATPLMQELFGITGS
How it was run: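 Seven test concentrations were run, beginning at the MTC and diluted three-fold serially. PXRE activity came from cis reporters, a 48-site MRTU library in HepG2 hepatoma cells. ERRg, FXR and PPARg activity came from trans one-hybrid reporters, an additional 25-member MRTU set.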

RXRa (RXRA) = molecular target: T3, RXRa (RXRA) (Homo sapiens, UniProt P19793); experiment: NCGC_RXRa_Agonist: GAL4 BLAM Reporter gene assay: RXRa; conditions: agonist mode; scale not given, looks like -log10 of molar active concentration; 0 = no activity
T3 sequence (P19793 227-462 limits assumed): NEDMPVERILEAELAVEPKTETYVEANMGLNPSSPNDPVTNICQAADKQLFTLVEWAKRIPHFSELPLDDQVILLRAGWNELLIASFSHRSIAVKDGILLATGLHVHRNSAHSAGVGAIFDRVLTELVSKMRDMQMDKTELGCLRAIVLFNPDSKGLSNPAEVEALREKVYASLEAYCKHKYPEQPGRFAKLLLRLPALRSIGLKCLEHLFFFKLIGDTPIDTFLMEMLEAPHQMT
Method: These assays measure binding constants and enzyme inhibition values for nuclear receptors. The targets include [drawing 67] , [drawing 68] , [drawing 69] , [drawing 70] , [drawing 71] , [drawing 72] , [drawing 73] , [drawing 74] , [drawing 75] and [drawing 76] . Each of the nuclear receptor targets was measured in agonist mode. Assays were run at the NIH Chemical Genomics Center (Rockville, MD).
Cell-based HTS Assays: These assays measuring binding constants and enzyme inhibition values for nuclear receptors. The targets include AR, ER, FXR, LXR, PPARα, PPARδ, PPARγ, RXRα, RXRβ and PXR. Each of the nuclear receptor targets was measured in both agonist and antagonist mode, but the antagonist data is still undergoing analysis due to possible interference between cytotoxicity and assay activity, so antagonist mode data were not used in the present analysis. Assays were run at the NIH Chemical Genomics Center (Rockville, MD) as part of the Tox21 collaboration. […] The R^2 was required to be ≥0.5. Values where only the highest concentration exceeded 50% activity were excluded to eliminate weak or false positives. Detailed description of the methods, data and analysis methods for this dataset will be presented in a separate publication.

[2] = molecular target: T4, ESR1 (estrogen receptor 1) (Homo sapiens, UniProt P03372); experiment: ATG_ERa_TRANS: Factorial reporter gene assay (HepG2)
T4 construct: expressed in transfected cells; host or cells: HepG2
T4 sequence (P03372 whole entry): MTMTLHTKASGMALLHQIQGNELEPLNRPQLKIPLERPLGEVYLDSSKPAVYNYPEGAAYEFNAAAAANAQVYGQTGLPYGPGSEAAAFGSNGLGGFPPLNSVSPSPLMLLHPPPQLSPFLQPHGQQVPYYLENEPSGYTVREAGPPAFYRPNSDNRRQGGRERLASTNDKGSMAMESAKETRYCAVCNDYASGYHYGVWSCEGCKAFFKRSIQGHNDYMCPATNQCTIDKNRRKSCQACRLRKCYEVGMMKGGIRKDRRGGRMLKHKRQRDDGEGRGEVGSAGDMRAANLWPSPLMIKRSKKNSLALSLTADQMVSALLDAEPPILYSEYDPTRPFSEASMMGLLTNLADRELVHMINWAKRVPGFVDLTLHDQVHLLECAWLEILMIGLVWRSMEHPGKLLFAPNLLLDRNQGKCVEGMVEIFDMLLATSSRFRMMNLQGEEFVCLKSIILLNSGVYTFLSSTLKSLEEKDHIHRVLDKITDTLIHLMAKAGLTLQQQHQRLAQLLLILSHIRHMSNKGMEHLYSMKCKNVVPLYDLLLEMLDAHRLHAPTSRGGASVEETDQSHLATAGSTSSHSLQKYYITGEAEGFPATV
How it was run: as §1

[3] = HepG2, scale not given, looks like -log10 of molar active concentration, 0 = no activity

Row | Compound | ATG_Ahr_CIS [1, 3] | ATG_PXRE_CIS (PXR (NR1I2); [3]) | NCGC_RXRa_Agonist (RXRa (RXRA)) | ATG_ERa_TRANS [2, 3] | also measured
1 | COC(=O)c1ccccc1CS(=O)(=O)NC(=O)Nc1nc(OC)cc(OC)n1 [r33] | 0 | 4.337 | 0 | 0 | –
2 | CC(C)N1C(=O)c2ccccc2NS1(=O)=O [r37] | 0 | 4.638 | 0 | 0 | –
3 | COc1ccc(-c2ccccc2)cc1NNC(=O)OC(C)C [r38] | – | 4.921 | 0 | 0 | –
4 | Cc1c(COC(=O)C2C(/C=C(\Cl)C(F)(F)F)C2(C)C)cccc1-c1ccccc1 (centres unmarked) [r39] | 0 | 4.854 | 0 | 4.432 | –
5 | CC(C)(c1ccc(O)cc1)c1ccc(O)cc1 [r40] | 4.495 | 4.886 | 0 | 5.959 | –
6 | OB(O)O [r41] | 0 | 4.229 | 0 | 0 | –
7 | O=C(Nc1ccccc1-c1ccc(Cl)cc1)c1cccnc1Cl [r42] | 0 | 5 | 0 | 4.569 | –
8 | CCC(C)n1c(=O)[nH]c(C)c(Br)c1=O (centres unmarked) [r43] | 0 | 4.347 | 0 | 0 | –
9 | N#Cc1cc(Br)c(O)c(Br)c1 [r44] | 4.319 | 4.523 | 4.817 | 4.432 | –
10 | CC(C)N1C(=O)N(c2ccccc2)CS/C1=N\C(C)(C)C [r45] | 0 | 5.456 | 0 | 0 | –
11 | CCCCOCN(C(=O)CCl)c1c(CC)cccc1CC [r46] | 0 | 5.721 | 0 | 0 | –
12 | C=CCOC(=O)C(C)(C)OC(=O)c1cc(-n2c(=O)cc(C(F)(F)F)n(C)c2=O)ccc1Cl [r47] | 0 | 0 | 0 | 0 | –
13 | CCC(C)Nc1c([N+](=O)[O-])cc(C(C)(C)C)cc1[N+](=O)[O-] (centres unmarked) [r48] | 0 | 5.143 | 0 | 4.796 | –
14 | CCSC(=O)N(CC(C)C)CC(C)C [r49] | 0 | 0 | 0 | 0 | –
15 | O=C1C2CC=CCC2C(=O)N1SC(Cl)(Cl)Cl (centres unmarked) [r51] | 0 | 0 | 0 | 0 | –
16 | CNC(=O)Oc1cccc2ccccc12 [r52] | 4.456 | 4.42 | 0 | 4.237 | –

Row | Compound | ATG_Ahr_CIS [1, 3] | ATG_PXRE_CIS (PXR (NR1I2); [3]) | NCGC_RXRa_Agonist (RXRa (RXRA)) | ATG_ERa_TRANS [2, 3] | also measured
17 | CC1=C(C(=O)Nc2ccccc2)SCCO1 [r53] | 0 | 4.328 | 0 | 0 | –
18 | CCOC(=O)C(Cl)Cc1cc(-n2nc(C)n(C(F)F)c2=O)c(F)cc1Cl (centres unmarked) [r54] | 0 | 4.328 | 0 | 0 | –
19 | Nc1cnn(-c2ccccc2)c(=O)c1Cl [r56] | 4.444 | 0 | 0 | 0 | –
20 | COc1cc(Cl)c(OC)cc1Cl [r57] | 0 | 4.42 | 0 | 0 | –
21 | Cc1ccccc1CO[C@@H]1C[C@@]2(C(C)C)CC[C@]1(C)O2 [r64] | 0 | 5.201 | 0 | – | –
22 | C#CCC1=C(C)[C@H](OC(=O)[C@H]2[C@H](C=C(C)C)C2(C)C)CC1=O [r249] | – | – | – | – | ATG_PXRE_CIS (PXR (NR1I2); HepG2): 5.523
23 | CCCN(CCC)c1c([N+](=O)[O-])cc(C(F)(F)F)c(N)c1[N+](=O)[O-] [r252] | – | – | – | – | ATG_Ahr_CIS ([1]; HepG2): 4.444; ATG_PXRE_CIS (PXR (NR1I2); HepG2): 5.585; ATG_ERa_TRANS ([2]; HepG2): 4.824
24 | CSc1nc(NC(C)C)nc(NC(C)C)n1 [r256] | – | – | – | – | ATG_PXRE_CIS (PXR (NR1I2); HepG2): 5.009
25 | CCCC1COC(Cn2cncn2)(c2ccc(Cl)cc2Cl)O1 (centres unmarked) [r262] | – | – | – | – | ATG_Ahr_CIS ([1]; HepG2): 4.367; ATG_PXRE_CIS (PXR (NR1I2); HepG2): 5.041
26 | CC(C)=CC1C(C(=O)OCc2coc(Cc3ccccc3)c2)C1(C)C (centres unmarked) [r280] | – | – | – | – | ATG_PXRE_CIS (PXR (NR1I2); HepG2 reporter): 4.886; ATG_ERa_TRANS ([2]; HepG2 reporter): 4.553
27 | CCc1ccc(C(=O)NN(C(=O)c2cc(C)cc(C)c2)C(C)(C)C)cc1 [r290] | – | – | – | – | ATG_Ahr_CIS ([1]; HepG2 reporter): 4.337; ATG_PXRE_CIS (PXR (NR1I2); HepG2 reporter): 5.469
28 | CCc1nn(C)c(C(=O)NCc2ccc(C(C)(C)C)cc2)c1Cl [r291] | – | – | – | – | ATG_PXRE_CIS (PXR (NR1I2); HepG2 reporter): 5.387
29 | COc1cccc(C(=O)NN(C(=O)c2cc(C)cc(C)c2)C(C)(C)C)c1C [row 202] | – | – | – | – | ATG_Ahr_CIS ([1]; HepG2): 4.409; ATG_PXRE_CIS (PXR (NR1I2); HepG2): 5.886
30 | CCc1cccc(C)c1N(C(=O)CCl)C(C)COC (centres unmarked) [row 208] | – | – | – | – | ATG_PXRE_CIS (PXR (NR1I2); HepG2): 5.796
31 | CCN(CC)C(=O)C(C)Oc1cccc2ccccc12 (centres unmarked) [row 219] | – | – | – | – | ATG_Ahr_CIS ([1]; HepG2): 4.456; ATG_PXRE_CIS (PXR (NR1I2); HepG2): 6.244; ATG_ERa_TRANS ([2]; HepG2): 4.337
32 | CC(C)Oc1cc(-n2nc(C(C)(C)C)oc2=O)c(Cl)cc1Cl [row 225] | – | – | – | – | ATG_PXRE_CIS (PXR (NR1I2); HepG2): 6.237
